Test system: R223X stop codon in the mutated luciferase gene, ADXC8 luciferase reporter cell line
Assay: cells
Format: cell-based
Conditions: ADXC8 cells, 24 hours; for Emax / EC (100% of 200 uM G418 response): 24 h; for Emax: read-out: Fold Over Control, maximum fold response relative to 200 μM G418; for EC (100% of 200 uM G418 response): read-out: pC100%, negative logarithm of the concentration giving the same response as 200 μM G418; for Fold Over Control: maximum fold response relative to 200 μM G418; for pC100%: negative logarithm of the concentration giving the same response as 200 μM G418

Compound	Emax	EC (100% of 200 uM G418 response)	Fold Over Control	pC100%
CNc1nc(N[C@H]2CN(C3CC3)C[C@H]2F)nc2nc(C)cc(C)c12 [Example 519, N^2-((3S,4R)-1-cyclopropyl-4-fluoropyrrolidin-3-yl)-N^4,5,7-trimethylpyrido[2,3-d]pyrimidine-2,4-diamine]	0 to 100%	> 31.6 µM	–	–
CNc1nc(N[C@H]2CNC[C@@H]2C(F)(F)F)nc2nc(C)cc(C)c12 [Example 417]	–	1 to 10 µM	–	–
Cc1c2c(nc3nc(NC4CCN(Cc5ccc(C(=O)O)cc5)CC4)nc(N)c13)CCC2 [Example 673]	100 to 3000%	1 to 10 µM	–	–
CNc1nc(N[C@H]2CN(C)C[C@@H]2O)nc2nc(C)c(Br)c(C)c12 [Example 615]	–	1 to 10 µM	–	–
CCNc1nc(N[C@]23C[C@H]2CN(C)C3)nc2nc(C)cc(C)c12 [Example 632]	100 to 3000%	0.1 to 1 µM	–	–
CNc1nc(N[C@H]2CN(C(C)C)C[C@H]2F)nc2nc(C)cc(C)c12 [Example 523, N^2-((3S,4R)-4-fluoro-1-isopropylpyrrolidin-3-yl)-N^4,5,7-trimethylpyrido[2,3-d]pyrimidine-2,4-diamine]	100 to 3000%	1 to 10 µM	–	–
CNc1nc(N[C@@H]2CCNC2)nc2nc(C)c(Cl)c(C)c12 [Example 358]	100 to 3000%	0.1 to 1 µM	–	–
Cc1cc(C)c2c(N)nc(NC3CCN(Cc4cccc(F)c4O)CC3)nc2n1 [Example 566]	100 to 3000%	0.1 to 1 µM	–	–
CN1CCC(Nc2nc(N)c3ccc(-c4cccc(N(C)C)c4)nc3n2)CC1 [Example 52]	100 to 3000%	1 to 10 µM	–	–
Cc1cc(C)c2c(N)nc(NC34CNCC3C4)nc2n1 (single isomer, unassigned) [Example 260, N^2-(3-azabicyclo[3.1.0]hexan-1-yl)-5,7-dimethylpyrido[2,3-d]pyrimidine-2,4-diamine]	–	–	## (Fold over Ctrl > 1 ≤ 30)	+++ (pC100% > 6.0 ≤ 7.0)
Cc1c2c(nc3nc(N[C@H]4CN(C)C[C@@H]4O)nc(N(C)C)c13)CCC2 [Example 547]	100 to 3000%	10 to 100 µM	–	–
Cc1cc(C)c2c(N)nc(NC3CCN(Cc4nnc[nH]4)CC3)nc2n1 [Example 483]	0 to 100%	> 31.6 µM	–	–
Cc1cc(C)c2c(N)nc(NC3CCN(Cc4ccno4)CC3)nc2n1 [Example 501]	100 to 3000%	10 to 100 µM	–	–
CNc1nc(N[C@H]2CNCC[C@H]2O)nc2nc(C)cc(C)c12 [Example 606]	–	1 to 10 µM	–	–
CSc1ccccc1-c1ccc2c(N)nc(NC3CCN(C)CC3)nc2n1 [Example 82]	–	1 to 10 µM	–	–
Cc1cc(C)c2c(N)nc(NCCN3CCOCC3)nc2n1 [Example 173]	0 to 100%	> 31.6 µM	–	–
CNc1nc(N[C@@H]2CCNC2)nc2nc3c(c(C)c12)CCC3 [Example 231, (R)—N^4,5-dimethyl-N^2-(pyrrolidin-3-yl)-7,8-dihydro-6H-cyclopenta[5,6]pyrido[2,3-d]pyrimidine-2,4-diamine]	100 to 3000%	0.1 to 1 µM	–	–
Cc1cc(C)c2c(NCCS(C)(=O)=O)nc(NC3CCN(C)CC3)nc2n1 [Example 356]	0 to 100%	> 31.6 µM	–	–
Cc1cc(C)c2c(N)cc(NC3CCN(C)CC3)nc2n1 [Example 291]	100 to 3000%	1 to 10 µM	–	–
Cc1cc(C)c2c(N)nc(NCC3CN(C(=O)OC(C)(C)C)C3)nc2n1 [Example 139]	100 to 3000%	10 to 100 µM	–	–
CNc1cc(N[C@H]2CN(C)C[C@@H]2OC)nc2nc3c(c(C)c12)CCC3 [Example 421]	100 to 3000%	0.1 to 1 µM	–	–
Cc1cc(C)c2c(N)nc(NCC3CNC3)nc2n1 [Example 199]	0 to 100%	> 31.6 µM	–	–

Compound	Emax	EC (100% of 200 uM G418 response)	Fold Over Control	pC100%
CN1CCC(Nc2nc(N)c3ccc(-c4ccccc4C(=O)O)nc3n2)CC1 [Example 87]	0 to 100%	> 100 µM	–	–
Cc1cc(C)c2c(N)nc(NC3CCN(Cc4cccc5cn[nH]c45)CC3)nc2n1 [Example 659]	100 to 3000%	0.1 to 1 µM	–	–
Cc1c2c(nc3nc(NC4CCN(Cc5ccc(B(O)O)cc5)CC4)nc(N)c13)CCC2 [Example 668]	100 to 3000%	1 to 10 µM	–	–
Cc1cc(C)c2c(N)nc(N[C@@H]3CN[C@@H](C)C3)nc2n1 [Example 349]	100 to 3000%	10 to 100 µM	–	–
CCC(=O)O[C@H]1CN(C)C[C@@H]1Nc1nc(NC)c2c(C)c3c(nc2n1)CCC3 [Example 682]	100 to 3000%	0.1 to 1 µM	–	–
Cc1nc2nc(NCCCN3CCOCC3)nc(N)c2c2c1CCC2 [Example 46, 6-methyl-N^3-(3-morpholinopropyl)-8,9-dihydro-7H-cyclopenta[4,5]pyrido[2,3-d]pyrimidine-1,3-diamine]	–	0.1 to 1 µM	–	–
Cc1cc(C)c2c(N)nc(NC[C@H]3CNCCO3)nc2n1 [Example 161]	100 to 3000%	10 to 100 µM	–	–
CNc1nc(N[C@H]2CNC[C@H](O)C2)nc2nc(C)cc(C)c12 [Example 611]	–	0.1 to 1 µM	–	–
Cc1cc(C)c2c(N)nc(NCCCNCC(F)(F)F)nc2n1 [Example 185]	0 to 100%	> 31.6 µM	–	–
Cc1c2c(nc3nc(NC4CCN(Cc5cccc6cc[nH]c56)CC4)nc(N)c13)CCC2 [Example 672]	100 to 3000%	0.01 to 0.1 µM	–	–
Cc1nc2nc(NC3CCN(Cc4ccc(C#N)cc4)CC3)nc(N)c2c2c1CCC2 [Example 554]	100 to 3000%	0.1 to 1 µM	–	–
CN(C)Cc1ccccc1-c1ccc2c(N)nc(NC3CCN(C)CC3)nc2n1 [Example 59]	0 to 100%	> 100 µM	–	–
Cc1cc(C)c2c(N)nc(NC3CNC3)nc2n1 [Example 214]	0 to 100%	> 31.6 µM	–	–
COC(C)c1ccc2c(N)nc(NC3CCN(C)CC3)nc2n1 (stereo not drawn) [Example 290]	100 to 3000%	10 to 100 µM	–	–
CNc1nc(N[C@H]2CN(C)CC[C@@H]2O)nc2nc(C)cc(C)c12 [Example 609]	–	1 to 10 µM	–	–
CNc1nc(N[C@@H]2CNC[C@@H]2O)nc2nc3c(c(C)c12)CCC3 [Example 657]	100 to 3000%	1 to 10 µM	–	–
CNc1nc(NC2CCN3CCCC3C2)nc2nc(C)cc(C)c12 (single isomer, unassigned) [Example 443]	100 to 3000%	–	–	++ (pC100% > 5.0 ≤ 6.0)
CNc1nc(NC2CNCC2C#N)nc2nc(C)cc(C)c12 (single isomer, unassigned) [Example 453]	–	–	## (Fold over Ctrl > 1 ≤ 30)	+ (pC100% > 4.0 ≤ 5.0)
CN1CCC(Nc2nc(N)c3ccc(-c4cccc(C(=O)O)c4)nc3n2)CC1 [Example 83]	0 to 100%	> 100 µM	–	–
CNCCNc1nc(NC2CCN(C)CC2)nc2nc(C)cc(C)c12 [Example 330]	0 to 100%	> 31.6 µM	–	–
Cc1cc(C)c2c(N)nc(NCCCN3Cc4ccccc4C3)nc2n1 [Example 194]	100 to 3000%	10 to 100 µM	–	–
Cc1cc(C)c2c(N)nc(NC3C4CNC[C@@H]43)nc2n1 (stereo partly drawn) [Example 203]	100 to 3000%	1 to 10 µM	–	–

From patent US20260234144A1 (TAY THERAPEUTICS LIMITED, priority 2023, published 2026)
